According to patent publication US12133855B2, “Lipid-like nanocomplexes and uses thereof” (Trustees of Tufts College, priority 2018, dated 2024):

Assays:
[1] = Thiol-triggered calcein release (fluorescence dequenching); type: physicochemical; conditions: DTT 1 mM, 5 mM and 10 mM, 12 h incubation
Protocol: Lipidoids were fabricated into nanoparticles for all delivery applications. Briefly, lipidoids were mixed with sodium acetate buffer (25 mM, pH 5.2), sonicated for 30 min in an ultrasonic bath, followed by another 30 min of vigorous vortexing. The as-prepared blank LNPs were stored at 4° C. For Cy5-RNA/LNP, mRNA/LNP and protein/LNP complexation, blank lipidoid nanoparticles were mixed with RNA molecules or (−30)GFP-Cre protein in PBS buffer (pH 7.4) following our previously reported procedures and incubated at room temperature for another 30 min before use. Typical procedures for Nile red encapsulation are as follows: 5 μL of Nile red stock solution in acetone was added into an empty vial, which was then placed in a vacuum oven to completely remove the organic solvent. Then, a predetermined amount of blank LNP stock solution (1.0 mg/mL) was added into the vial. The mixture was sonicated for 40 min in an ultrasonic bath and stirred overnight at room temperature. The final concentration of Nile red was adjusted to 6.6×10-7 mol L-1 and 6×10-7 mol L-1 for thiol triggered release study and cell incubation, respectively, by diluting with PBS as necessary. Typical procedures for CPT and DiO/DiI FRET pair encapsulation are as follows: 100 μL of DiO/DiI stock solution in MeOH was charged into an empty vial and placed in a vacuum oven to remove the organic solvent. […]

[2] = test system: HeLa cells; test: Cytotoxicity of anticancer drug loaded nanoparticles (MTT); conditions: Dox series; 8 h of exposure, MTT after 48 h of incubation
Protocol: After 24 h of incubation at 37° C., 5% CO2, Dox, CPT or Oxa loaded nanoparticles were added to the cells and incubated for 8 h followed by media change. The cells were then incubated for another 40 h before cell viability analysis.
Cell viabilities of HeLa and HeLa-DsRed were measured using the standard MTT assay. In a 96-well plate, after incubating HeLa or HeLa-DsRed cells with blank or cargo-loaded nanoparticles, the MTT reagent (5 mg/mL, in 30 μL PBS buffer) was added and the cells were incubated for another 4 h at 37° C. The cell culture media was then carefully removed and 200 μL of DMSO was added to each well. The DMSO solution was then transferred into a clean 96-well plate and the absorbance at 570 nm was recorded by a microplate reader. All experiments were performed in quadruplicate.
Dose-dependent cytotoxicity was then examined.

[3] = Thiol-triggered Nile red release; type: physicochemical
Protocol: Lipidoids were fabricated into nanoparticles for all delivery applications. Briefly, lipidoids were mixed with sodium acetate buffer (25 mM, pH 5.2), sonicated for 30 min in an ultrasonic bath, followed by another 30 min of vigorous vortexing. The as-prepared blank LNPs were stored at 4° C. For Cy5-RNA/LNP, mRNA/LNP and protein/LNP complexation, blank lipidoid nanoparticles were mixed with RNA molecules or (−30)GFP-Cre protein in PBS buffer (pH 7.4) following our previously reported procedures and incubated at room temperature for another 30 min before use. Typical procedures for Nile red encapsulation are as follows: 5 μL of Nile red stock solution in acetone was added into an empty vial, which was then placed in a vacuum oven to completely remove the organic solvent. Then, a predetermined amount of blank LNP stock solution (1.0 mg/mL) was added into the vial. The mixture was sonicated for 40 min in an ultrasonic bath and stirred overnight at room temperature. The final concentration of Nile red was adjusted to 6.6×10-7 mol L-1 and 6×10-7 mol L-1 for thiol triggered release study and cell incubation, respectively, by diluting with PBS as necessary. Typical procedures for CPT and DiO/DiI FRET pair encapsulation are as follows: 100 μL of DiO/DiI stock solution in MeOH was charged into an empty vial and placed in a vacuum oven to remove the organic solvent. Lipidoids (2.0 mg) in 200 μL of methanol were then added into the vial and stirred to produce a homogeneous solution. Then, 600 μL of DI water was added dropwise in 10 min with continuous stirring. The resulting mixture was dialyzed against DI water for 24 h (Thermo Scientific Slide-A-Lyzer Dialysis Cassette, MWCO=3500 Da), and fresh water was replaced every 4 h. Typical procedures for encapsulation of calcein and doxonorubicin hydrochloride are as follows: precalculated amounts of calcein or Dox stock solutions in DI water was diluted into 800 μL with sodium acetate buffer, and used as the selective solvents to trigger the self-assembly process of lipidoids in methanol (5 mg/mL), respectively. The unloaded calcein or Dox was removed by dialysis against DI water (Thermo Scientific Slide-A-Lyzer Dialysis Cassette, MWCO=3500 Da).
The reduction triggered release behavior of encapsulated cargoes was then studied by using nile red loaded 75-OCholB LNPs (NR/75-OCholB), taking advantage of the microenvironmental polarity sensitive photophysical property of nile red. […] In the meantime, 20 μM Cysteine treated NR/75-OCholB released 4.2% of nile red in 2 h and 6.9% in 6 h, which could be ascribed to the previously discussed minimal structural and morphological changes of the LNPs under the stimulus of low concentration of thiols (FIGS. 11A and 11C). […] Furthermore, the binding affinity of OCholB LNPs with negatively charged macromolecular cargo, Cy5-RNA, was examined. […] Additionally, similar to the responsiveness study, it is reasonable that the cargo release profiles could depend on both of the species and concentrations of the thiols-containing regents. Above all, OCholB LNPs loaded with cargoes are relatively stable in the presence of low concentration of thiols and the triggered release behaviors of cargo molecules with different physicochemical properties (hydrophobic/hydrophilic, low/high molecular weight, etc.) could be expected.

SMILES: CCN(CC)CCN(CCC(=O)OCCSSCCNC(=O)OC1CCC2(C)C(=CCC3C2CCC2(C)C(C(C)CCCC(C)C)CCC32)C1)CCC(=O)OCCSSCCNC(=O)OC1CCC2(C)C(=CCC3C2CCC2(C)C(C(C)CCCC(C)C)CCC32)C1 (stereo not shown) [Lipidoid 75-OCholB]
- increase of calcein fluorescence intensity vs untreated and cysteine treated LNPs [1]: 4.7-6.4 folds
- cell viability / dose-dependent cytotoxicity [2]: > 80%
- encapsulated nile red released ([3]; 20 μM Cysteine, 2 h): 4.2%
- encapsulated nile red released ([3]; 20 μM Cysteine, 6 h): 6.9%
- encapsulated nile red released ([3]; 1 mM DTT, 2 h): 33.5%
- encapsulated nile red released ([3]; 1 mM DTT, 6 h): 44.0%
- encapsulated nile red released ([3]; 5 mM DTT, 2 h): 61.7%
- encapsulated nile red released ([3]; 5 mM DTT, 6 h): 84.2%
- encapsulated nile red released ([3]; 10 mM DTT, 2 h): 67.4%
- encapsulated nile red released ([3]; 10 mM DTT, 6 h): 86.4%
